Measurements as given in the NIST ThermoML archive (doi:10.1021/je100687x).
Numbers after ± are expanded uncertainties.

Assays:
[1] = 101 kPa, Liquid; for electrical conductivity: Crison GLP 31+ conductivimeter
[2] = xn = mol fraction of the nth substance listed; conditions: 101 kPa, Liquid; for electrical conductivity: Crison GLP 31+ conductivimeter

SMILES: CCCCn1cc[n+](C)c1.F[B-](F)(F)F [1-butyl-3-methylimidazolium tetrafluoroborate]
- viscosity ([1]; 288.15 K): 173.5 ± 23 mPa·s
- viscosity ([1]; 298.15 K): 99.2 ± 7.4 mPa·s
- electrical conductivity ([1]; 298.15 K): 0.352 ± 0.001 S/m
- viscosity ([1]; 308.15 K): 61.3 ± 1.8 mPa·s
- viscosity ([1]; 318.15 K): 40.4 ± 1.3 mPa·s

SMILES: CCn1cc[n+](C)c1.F[B-](F)(F)F [1-ethyl-3-methylimidazolium tetrafluoroborate]
- viscosity ([1]; 288.15 K): 55.5 ± 1.4 mPa·s
- viscosity ([1]; 298.15 K): 36.9 ± 1.2 mPa·s
- electrical conductivity ([1]; 298.15 K): 1.63 ± 0.001 S/m
- viscosity ([1]; 308.15 K): 26 ± 0.85 mPa·s
- viscosity ([1]; 318.15 K): 19.17 ± 0.63 mPa·s

SMILES: CCn1cc[n+](C)c1.F[B-](F)(F)F [1-ethyl-3-methylimidazolium tetrafluoroborate] + CCO
- viscosity ([2]; 288.15 K, x2 = 0): 55.5 ± 1.4 mPa·s
- viscosity ([2]; 288.15 K, x2 = 0.0946): 34.76 ± 1.1 mPa·s
- viscosity ([2]; 288.15 K, x2 = 0.1928): 25.25 ± 0.81 mPa·s
- viscosity ([2]; 288.15 K, x2 = 0.2757): 20.25 ± 0.65 mPa·s
- viscosity ([2]; 288.15 K, x2 = 0.3116): 18.17 ± 0.59 mPa·s
- viscosity ([2]; 288.15 K, x2 = 0.3913): 13.68 ± 0.45 mPa·s
- viscosity ([2]; 288.15 K, x2 = 0.4553): 12.47 ± 0.41 mPa·s
- electrical conductivity ([2]; 298.15 K, x2 = 0): 1.63 ± 0.001 S/m
- electrical conductivity ([2]; 298.15 K, x2 = 0.028): 1.718 ± 0.001 S/m
- electrical conductivity ([2]; 298.15 K, x2 = 0.057): 1.843 ± 0.001 S/m
- electrical conductivity ([2]; 298.15 K, x2 = 0.0719): 1.911 ± 0.001 S/m
- electrical conductivity ([2]; 298.15 K, x2 = 0.1034): 2.061 ± 0.001 S/m
- electrical conductivity ([2]; 298.15 K, x2 = 0.1624): 2.287 ± 0.001 S/m
- electrical conductivity ([2]; 298.15 K, x2 = 0.242): 2.647 ± 0.001 S/m
- electrical conductivity ([2]; 298.15 K, x2 = 0.3165): 2.982 ± 0.001 S/m
- electrical conductivity ([2]; 298.15 K, x2 = 0.3892): 3.228 ± 0.001 S/m
- electrical conductivity ([2]; 298.15 K, x2 = 0.4085): 3.278 ± 0.001 S/m
- electrical conductivity ([2]; 298.15 K, x2 = 0.4322): 3.26 ± 0.001 S/m
- electrical conductivity ([2]; 298.15 K, x2 = 0.4511): 3.47 ± 0.002 S/m
- electrical conductivity ([2]; 298.15 K, x2 = 0.4613): 3.561 ± 0.002 S/m
- viscosity ([2]; 298.15 K, x2 = 0): 36.9 ± 1.2 mPa·s
- viscosity ([2]; 298.15 K, x2 = 0.0946): 24.46 ± 0.79 mPa·s
- viscosity ([2]; 298.15 K, x2 = 0.1928): 18.33 ± 0.6 mPa·s
- viscosity ([2]; 298.15 K, x2 = 0.2757): 14.92 ± 0.49 mPa·s
- viscosity ([2]; 298.15 K, x2 = 0.3116): 13.47 ± 0.44 mPa·s
- viscosity ([2]; 298.15 K, x2 = 0.3913): 10.3 ± 0.34 mPa·s
- viscosity ([2]; 298.15 K, x2 = 0.4553): 8.445 ± 0.28 mPa·s
- viscosity ([2]; 308.15 K, x2 = 0): 26 ± 0.85 mPa·s
- viscosity ([2]; 308.15 K, x2 = 0.0946): 18.04 ± 0.59 mPa·s
- viscosity ([2]; 308.15 K, x2 = 0.1928): 13.88 ± 0.46 mPa·s
- viscosity ([2]; 308.15 K, x2 = 0.2757): 11.39 ± 0.38 mPa·s
- viscosity ([2]; 308.15 K, x2 = 0.3116): 10.38 ± 0.34 mPa·s
- viscosity ([2]; 308.15 K, x2 = 0.3913): 8.074 ± 0.27 mPa·s
- viscosity ([2]; 308.15 K, x2 = 0.4553): 6.668 ± 0.23 mPa·s
- viscosity ([2]; 318.15 K, x2 = 0): 19.17 ± 0.63 mPa·s
- viscosity ([2]; 318.15 K, x2 = 0.0946): 13.79 ± 0.46 mPa·s
- viscosity ([2]; 318.15 K, x2 = 0.1928): 10.84 ± 0.36 mPa·s
- viscosity ([2]; 318.15 K, x2 = 0.2757): 8.958 ± 0.3 mPa·s
- viscosity ([2]; 318.15 K, x2 = 0.3116): 8.238 ± 0.28 mPa·s
- viscosity ([2]; 318.15 K, x2 = 0.3913): 6.494 ± 0.22 mPa·s
- viscosity ([2]; 318.15 K, x2 = 0.4553): 5.408 ± 0.19 mPa·s

SMILES: CCCCCCn1cc[n+](C)c1.F[B-](F)(F)F [1-hexyl-3-methylimidazolium tetrafluoroborate]
- viscosity ([1]; 288.15 K): 357.5 ± 76 mPa·s
- viscosity ([1]; 298.15 K): 190.9 ± 28 mPa·s
- electrical conductivity ([1]; 298.15 K): 0.126 ± 0.001 S/m
- viscosity ([1]; 308.15 K): 110.3 ± 9.5 mPa·s
- viscosity ([1]; 318.15 K): 68.5 ± 2.6 mPa·s

SMILES: CCCCCCCC[n+]1ccn(C)c1.F[B-](F)(F)F [1-methyl-3-octylimidazolium tetrafluoroborate]
- viscosity ([1]; 288.15 K): 686 ± 190 mPa·s
- viscosity ([1]; 298.15 K): 337.4 ± 70 mPa·s
- electrical conductivity ([1]; 298.15 K): 0.069 ± 0.001 S/m
- viscosity ([1]; 308.15 K): 187.7 ± 27 mPa·s
- viscosity ([1]; 318.15 K): 112.1 ± 9.9 mPa·s

SMILES: CCO [ethanol]
- viscosity ([1]; 288.15 K): 1.296 ± 0.063 mPa·s
- viscosity ([1]; 298.15 K): 1.091 ± 0.058 mPa·s
- electrical conductivity ([1]; 298.15 K): 3e-05 ± 1e-05 S/m
- viscosity ([1]; 308.15 K): 0.9153 ± 0.054 mPa·s
- viscosity ([1]; 318.15 K): 0.7738 ± 0.05 mPa·s

SMILES: CCO [ethanol] + CCCCCCCC[n+]1ccn(C)c1.F[B-](F)(F)F
- electrical conductivity ([2]; 298.15 K, x1 = 1): 3e-05 ± 1e-05 S/m

SMILES: CCO [ethanol] + CCn1cc[n+](C)c1.F[B-](F)(F)F
- viscosity ([2]; 288.15 K, x1 = 1): 1.296 ± 0.063 mPa·s
- viscosity ([2]; 298.15 K, x1 = 1): 1.091 ± 0.058 mPa·s
- viscosity ([2]; 308.15 K, x1 = 1): 0.9153 ± 0.054 mPa·s
- viscosity ([2]; 318.15 K, x1 = 1): 0.7738 ± 0.05 mPa·s
